In patent publication US12152012B2, “BRAG2 inhibitors and applications thereof” (CENTRE NATIONAL DE LA RECHERCHE SCIENTIFIQUE, priority 2018, dated 2024):
“Also recorded” adds a separate entry of the source.

Columns and labels:
[1] = molecular target: T1, BRAG2 binding to PIP2-containing liposomes (Homo sapiens, UniProt Q6DN90); experiment: Liposome flotation assay
T1 construct: human BRAG2^Sec7 (390-594) and BRAG2^Sec7PH (390-811); made in house
Description: FIG. 4. Bragsin is a non-competitive inhibitor of protein-membrane interactions • a. Bragsin1 (in violet) overlaps with the canonical phosphoinositide-binding site of the PH domain of BRAG2. IP3 (in red) is from the GRP1-IP3 complex (DiNitto, J. P. et al. Structural basis and mechanism of autoregulation in 3-phosphoinositide-dependent Grp1 family Arf GTPase exchange factors. Mol Cell 28, 569-83 (2007)). The position of the membrane is indicated by an arrow. • b. […] Binding was measured by liposome flotation. U: bottom fraction, containing unbound proteins; B: top fraction, containing liposome-bound proteins. […] Quantification is shown below. • c. Inhibition of BRAG2 by Bragsin2 is stronger in the presence of liposomes that contain PIP2 lipids. Kinetics were measured as in FIG. 2b.
Bragsin may partially overlap with a lipid bound at this position was predicted by comparison of the PH domain of a cytohesin ArfGEF with a phosphoinositide headgroup bound to the canonical lipid-binding site (DiNitto, J. P. et al. Mol Cell 28, 569-83 (2007))(FIG. 4a). Bragsin inhibition could act by blocking the interaction of BRAG2 with membranes. […] Alternatively, Bragsin may bind at the interface between the PH domain and the membrane if inhibition is sensitive to the lipid composition of the membrane. […]

[2] = tested on: tubulin and actin networks in Hela cells; experiment: Immunostaining and confocal microscopy of Hela cells; type: cell-based, human; details: 50 μM, 30 min
Description: FIG. 10: Bragsin2 has no effect on the tubulin and actin networks in Hela cells. HeLa cells were treated with either DMSO (0.25%) or Bragsin2 (50 μM) for 30 min, immunostained for α-tubulin (green channel) or F-actin (magenta channel) and analysed by confocal microscopy.
Hela cells were grown in Dulbecco's modified Eagle's medium supplemented with Glutamax™ and 10% fetal bovine serum (Invitrogen). For immunofluorescence studies, cells were grown on Labtek glass slides (Nunc) and transfected for 18 to 24 h using Lipofectamine 2000 (Invitrogen), according to the supplier's instructions. […]
Immunostaining procedure was as described in (Viaud, J. et al. Structure-based discovery of an inhibitor of Arf activation by Sec7 domains through targeting of protein-protein complexes. Proc Natl Acad Sci USA 104, 10370-5 (2007)) except that secondary antibody incubation was performed for 1h using Alexa 488-conjugated goat anti-mouse (1:600) or donkey anti-sheep (1:500) IgG and Alexa 647-conjugated phalloidin (1:100). […] Images were bidirectionally recorded using an inverted Leica TCS SP8 laser-scanning confocal microscope with a 100× (N. A. 1.40) oil objective (HCX APO, Leica). Fluorochromes were detected sequentially using excitation laser lines at 488 nm (Alexa 488), 594 nm (mCherry) and 633 nm (Alexa 647). […]

T1 sequence (Q6DN90 512-933): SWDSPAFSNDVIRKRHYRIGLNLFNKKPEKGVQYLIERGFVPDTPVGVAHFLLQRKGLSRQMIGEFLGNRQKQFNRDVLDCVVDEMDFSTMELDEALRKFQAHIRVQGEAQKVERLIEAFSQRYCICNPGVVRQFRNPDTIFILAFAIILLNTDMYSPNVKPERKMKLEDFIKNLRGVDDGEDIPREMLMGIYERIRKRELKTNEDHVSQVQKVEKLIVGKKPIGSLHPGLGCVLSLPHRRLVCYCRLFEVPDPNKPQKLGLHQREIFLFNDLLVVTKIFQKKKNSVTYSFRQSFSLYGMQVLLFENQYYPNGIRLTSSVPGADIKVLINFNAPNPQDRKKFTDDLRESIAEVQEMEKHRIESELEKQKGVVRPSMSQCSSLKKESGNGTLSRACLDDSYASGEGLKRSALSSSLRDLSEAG

SMILES: COc1ccc2oc(C(F)(F)F)cc(=O)c2c1[N+](=O)[O-] [Bragsin2, 6-methoxy-5-nitro-2-(trifluoromethyl)-4H-chromen-4-one]
- Displacement of BRAG2 from PIP2-containing liposomes [1]: did not displace; also recorded: does not impair binding
- Effect on tubulin and actin networks [2]: no effect
